Source: PubChem BioAssay AID2060619 (Molecular Pharmacology Branch, DTP, NCI, 2025)

System: 323965-272-R-J2-PDC complex spheroid viability
Test: Anticancer human tumor 323965-272-R-J2-PDC patient-derived pancreatic carcinoma cell line growth inhibition [CLK]
Settings: for IC50: curve of first compound; for viability, T/C: stronger effect = lower value
From the text: A high-throughput screen of multi-cell type tumor spheroids was designed to identify active combinations of […] and targeted small molecules. Complex spheroids include a stromal component modeled by human endothelial cells (HUVEC) and fibroblasts modeled by human mesenchymal stem cells (MSCs). The concentration ranges selected for each drug and investigational agent were based upon clinically achievable concentrations if the clinical Cmax of the agent was known.
Compounds. The drugs and investigational agents: cirtuvivint (SM08502; NSC835563), CC-671 (NSC850746), vemurafenib (NSC761431), tapotoclax (NSC804041), sotorasib (NSC818433), adagrasib (NSC831453), MRTX-1133 (NSC836407), BAY2416964 (NSC825713), copanlisib (NSC816437), inavolisib (NSC800729), abemaciclib (NSC768073), osimertinib (NSC779217), entinostat (NSC756642), eltanexor (KPT-8602, NSC794443), venetoclax (NSC766270), ceralasertib (NSC777638), bortezomib (NSC756655), olaparib (NSC753686), talazoparib (NSC767125), alisertib (NSC759677), peposertib (NSC802822), gemcitabine (NSC613327), 5-fluorouracil (NSC19893), SN-38 (NSC673596), oxaliplatin (NSC266046), paclitaxel (NSC125973), and doxorubicin (NSC123127), were obtained from the National Cancer Institute (NCI) Developmental Therapeutics Program Chemical Repository. The FDA-approved anticancer drug set is available from the Developmental Therapeutics Program at https://dtp.cancer.gov/organization/dscb/obtaining/available plates.htm. […] The stock solutions were prepared in dimethyl sulfoxide (DMSO, Sigma-Aldrich, St. Louis, MO, cat. D2650), except for the platinum complexes which were prepared in saline (Quality Biological, Gaithersburg, MD, cat. 114-055-101), at 800-fold the tested concentration and stored at -70 degrees C prior to their use. All drugs and investigational agents were tested over a range starting from a high concentration at or near the clinical Cmax and decreasing in half-log increments. If the clinical Cmax for an agent had not been determined, the highest concentration tested was 10 microM.
Cell Culture. All cells were maintained in an incubator at 37 degrees C and 5% CO2 with 95% humidity. The PDC lines were cultured according to standard operating procedures established by the NCI PDMR. Briefly, all PDCs were thawed and cultured in Matrigel-coated flasks prepared with a working solution of 1X Ham's F-12 nutrient mix, without supplementation (Invitrogen, Waltham, MA, cat. 11765054), 100 U/mL penicillin-streptomycin (Invitrogen, cat. 15140122), and 2.5% Matrigel (Corning Inc., Corning, NY, cat. 354248) for the first three passages. The 947758-054-R-J2-PDC line was cultured in 6B/Colon 1A media, which includes advanced DMEM/F-12 (Thermo Fisher Scientific, cat. 12634028), 10 mM HEPES (Thermo Fisher Scientific, cat. 15630080), 1X GlutaMAX supplement (Thermo Fisher Scientific, cat. 35050061), 0.1 mg/mL primocin (InvivoGen, cat. ant-pm-2), 10% defined fetal bovine serum, heat inactivated (HyClone Laboratories Inc., cat. SH30070.03HI), 1.25 mM N-Acetyl-L-cysteine (Sigma-Aldrich, cat. A9165), 10 mM nicotinamide (Sigma-Aldrich, cat. N0636), 1X B-27 supplement (Thermo Fisher Scientific, cat. 17504044), 1X N-2 supplement (Thermo Fisher Scientific, cat. 17502048), and 10 microM Y-27632 dihydrochloride (Tocris Bioscience, cat. 1254). The 876862-298-R-J1-PDC was cultured in 6E media, which includes all 6B/Colon 1A media components plus 50% L-WRN conditioned media (ATCC, cat. CRL-3276), 50 ng/mL recombinant human EGF recombinant protein (hEGF; Thermo Fisher Scientific, cat. PHG0311), 10 ng/mL recombinant human fibroblast growth factor 10 (hGFG-10; PeproTech, cat. 100-26), 1 ng/mL recombinant human fibroblast growth factor 2 (hFGF-2; PeproTech, cat. 100-18B), and 1 µM prostaglandin E2 (PGE2; Tocris, cat. 2296). The 227483-062-R1-J1-PDC line was cultured in Panc media, containing all 6E components except hFGF-2, with the addition of 500 nM SB-431542 (Selleckchem, cat. S1067) and 10 nM gastrin (Tocris, cat. 3006). […]
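Further: spheroids exposed to agents for seven days before readout.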
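Wherever viability, T/C is given: percent of DMSO vehicle control wells so 100% = untreated growth.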

Q: With C=CC(=O)Nc1cc(Nc2nccc(-c3cn(C)c4ccccc34)n2)c(OC)cc1N(C)CCN(C)C + CNC(=O)c1ccc(Nc2nc(OC3CCCC3)c3c(-c4ccc5nc(C)oc5c4)c[nH]c3n2)c(OC)c1 as the molecule, how does the IC50 (second compound 0.0316 µM) read?
A: The IC50 was over 300 nM.

Q: And the IC50 (second compound 0.1 µM)?
A: Its IC50 is 171 nM.

Q: And the IC50 (second compound 0.316 µM)?
A: The IC50 was 10.9 nM.

Q: What about the IC50 (second compound 1 µM) of the same molecule?
A: Its IC50 is under 0.949 nM.

Q: What about the IC50 (second compound 3.16 µM) of the same molecule?
A: The IC50 was under 0.949 nM.

Q: What about the IC50 (second compound 10 µM) of the same molecule?
A: Its IC50 is under 0.949 nM.

Q: And the viability, T/C (second compound 0.0316 µM, first compound 0.000949 µM)?
A: The viability, T/C was 101%.

Q: And the viability, T/C (second compound 0.0316 µM, first compound 0.003 µM)?
A: The viability, T/C was 110%.

Q: And the viability, T/C (second compound 0.0316 µM, first compound 0.00949 µM)?
A: Its viability, T/C is 86%.

Q: What about the viability, T/C (second compound 0.0316 µM, first compound 0.03 µM) of the same molecule?
A: The viability, T/C was 85.1%.

Q: And the viability, T/C (second compound 0.0316 µM, first compound 0.0949 µM)?
A: Its viability, T/C is 81.9%.

Q: What about the viability, T/C (second compound 0.0316 µM, first compound 0.3 µM) of the same molecule?
A: Its viability, T/C is 83.5%.

Q: What about the viability, T/C (second compound 0.1 µM, first compound 0.000949 µM) of the same molecule?
A: Its viability, T/C is 70.8%.

Q: And the viability, T/C (second compound 0.1 µM, first compound 0.003 µM)?
A: The viability, T/C was 71.8%.

Q: What about the viability, T/C (second compound 0.1 µM, first compound 0.00949 µM) of the same molecule?
A: The viability, T/C was 62.8%.

Q: What about the viability, T/C (second compound 0.1 µM, first compound 0.03 µM) of the same molecule?
A: Its viability, T/C is 60.1%.

Q: And the viability, T/C (second compound 0.1 µM, first compound 0.0949 µM)?
A: The viability, T/C was 57.1%.

Q: What about the viability, T/C (second compound 0.1 µM, first compound 0.3 µM) of the same molecule?
A: The viability, T/C was 44.8%.

Q: What about the viability, T/C (second compound 0.316 µM, first compound 0.000949 µM) of the same molecule?
A: The viability, T/C was 54.5%.

Q: And the viability, T/C (second compound 0.316 µM, first compound 0.003 µM)?
A: The viability, T/C was 55.5%.

Q: What about the viability, T/C (second compound 0.316 µM, first compound 0.00949 µM) of the same molecule?
A: Its viability, T/C is 46.9%.

Q: What about the viability, T/C (second compound 0.316 µM, first compound 0.03 µM) of the same molecule?
A: Its viability, T/C is 48%.

Q: What about the viability, T/C (second compound 0.316 µM, first compound 0.0949 µM) of the same molecule?
A: The viability, T/C was 40.5%.

Q: What about the viability, T/C (second compound 0.316 µM, first compound 0.3 µM) of the same molecule?
A: The viability, T/C was 31.6%.

Q: What about the viability, T/C (second compound 1 µM, first compound 0.000949 µM) of the same molecule?
A: The viability, T/C was 41.9%.

Q: And the viability, T/C (second compound 1 µM, first compound 0.003 µM)?
A: The viability, T/C was 39%.

Q: And the viability, T/C (second compound 1 µM, first compound 0.00949 µM)?
A: The viability, T/C was 40.7%.

Q: What about the viability, T/C (second compound 1 µM, first compound 0.03 µM) of the same molecule?
A: The viability, T/C was 34.4%.

Q: What about the viability, T/C (second compound 1 µM, first compound 0.0949 µM) of the same molecule?
A: Its viability, T/C is 34.2%.

Q: And the viability, T/C (second compound 1 µM, first compound 0.3 µM)?
A: The viability, T/C was 26.8%.

Q: What about the viability, T/C (second compound 3.16 µM, first compound 0.000949 µM) of the same molecule?
A: The viability, T/C was 36.6%.

Q: And the viability, T/C (second compound 3.16 µM, first compound 0.003 µM)?
A: Its viability, T/C is 43.6%.

Q: And the viability, T/C (second compound 3.16 µM, first compound 0.00949 µM)?
A: Its viability, T/C is 37.6%.

Q: And the viability, T/C (second compound 3.16 µM, first compound 0.03 µM)?
A: Its viability, T/C is 34.6%.

Q: What about the viability, T/C (second compound 3.16 µM, first compound 0.0949 µM) of the same molecule?
A: Its viability, T/C is 28.5%.

Q: What about the viability, T/C (second compound 3.16 µM, first compound 0.3 µM) of the same molecule?
A: The viability, T/C was 29%.

Q: And the viability, T/C (second compound 10 µM, first compound 0.000949 µM)?
A: The viability, T/C was 45.3%.

Q: What about the viability, T/C (second compound 10 µM, first compound 0.003 µM) of the same molecule?
A: Its viability, T/C is 39.3%.

Q: What about the viability, T/C (second compound 10 µM, first compound 0.00949 µM) of the same molecule?
A: The viability, T/C was 38.8%.

Q: And the viability, T/C (second compound 10 µM, first compound 0.03 µM)?
A: Its viability, T/C is 31.4%.

Q: What about the viability, T/C (second compound 10 µM, first compound 0.0949 µM) of the same molecule?
A: Its viability, T/C is 32.8%.

Q: What about the viability, T/C (second compound 10 µM, first compound 0.3 µM) of the same molecule?
A: Its viability, T/C is 27.7%.
